Assay results as given in ChEMBL document CHEMBL4414672, “Synthesis of certain benzothieno[3,2-d]pyrimidine derivatives as a selective SIRT2 inhibitors” (Eur J Med Chem, 2020).

Experiments:
Type in all cases: functional
[1] = tested on: SNB-19; test: Growth inhibition of human SNB19 cells at 10^-5 M incubated for 48 hrs by sulforhodamine B assay; conditions: SNB-19, 48 h, read-out: GI
[2] = tested on: SK-MEL-2; test: Growth inhibition of human SK-MEL-2 cells at 10^-5 M incubated for 48 hrs by sulforhodamine B assay; conditions: SK-MEL-2, 48 h, read-out: GI
[3] = tested on: BT-549; test: Growth inhibition of human BT549 cells at 10^-5 M incubated for 48 hrs by sulforhodamine B assay; conditions: BT-549, 48 h, read-out: GI
[4] = tested on: SN12C; test: Growth inhibition of human SN12C cells at 10^-5 M incubated for 48 hrs by sulforhodamine B assay; conditions: read-out: GI
[5] = tested on: SF-268; test: Growth inhibition of human SF268 cells at 10^-5 M incubated for 48 hrs by sulforhodamine B assay; conditions: SF-268, 48 h, read-out: GI
[6] = tested on: NCI/ADR-RES; test: Growth inhibition of human NCI/ADR-RES cells at 10^-5 M incubated for 48 hrs by sulforhodamine B assay; conditions: read-out: GI
[7] = tested on: MDA-MB-468; test: Growth inhibition of human MDA-MB-468 cells at 10^-5 M incubated for 48 hrs by sulforhodamine B assay; conditions: MDA-MB-468, 48 h, read-out: GI
[8] = tested on: NCI-H23; test: Growth inhibition of human NCI-H23 cells at 10^-5 M incubated for 48 hrs by sulforhodamine B assay; conditions: NCI-H23, 48 h, read-out: GI
[9] = tested on: NCI-H322M; test: Growth inhibition of human NCI-H322M cells at 10^-5 M incubated for 48 hrs by sulforhodamine B assay; conditions: read-out: GI
[10] = tested on: K562; test: Growth inhibition of human K562 cells at 10^-5 M incubated for 48 hrs by sulforhodamine B assay; conditions: K562, 48 h, read-out: GI
[11] = tested on: NCI-H522; test: Growth inhibition of human NCI-H522 cells at 10^-5 M incubated for 48 hrs by sulforhodamine B assay; conditions: NCI-H522, 48 h, read-out: GI
[12] = tested on: MCF7; test: Growth inhibition of human MCF7 cells at 10^-5 M incubated for 48 hrs by sulforhodamine B assay; conditions: MCF7, 48 h, read-out: GI
[13] = tested on: PC-3; test: Growth inhibition of human PC3 cells at 10^-5 M incubated for 48 hrs by sulforhodamine B assay; conditions: PC-3, 48 h, read-out: GI
[14] = tested on: ACHN; test: Growth inhibition of human ACHN cells at 10^-5 M incubated for 48 hrs by sulforhodamine B assay; conditions: read-out: GI
[15] = tested on: A498; test: Growth inhibition of human A498 cells at 10^-5 M incubated for 48 hrs by sulforhodamine B assay; conditions: A498, 48 h, read-out: GI
[16] = tested on: HT-29; test: Growth inhibition of human HT-29 cells at 10^-5 M incubated for 48 hrs by sulforhodamine B assay; conditions: HT-29, 48 h, read-out: GI
[17] = tested on: UO-31; test: Growth inhibition of human UO31 cells at 10^-5 M incubated for 48 hrs by sulforhodamine B assay; conditions: UO-31, 48 h, read-out: GI
[18] = tested on: OVCAR-3; test: Growth inhibition of human OVCAR3 cells at 10^-5 M incubated for 48 hrs by sulforhodamine B assay; conditions: OVCAR-3, 48 h, read-out: GI
[19] = tested on: Malme-3M; test: Growth inhibition of human MALME-3M cells at 10^-5 M incubated for 48 hrs by sulforhodamine B assay; conditions: read-out: GI
[20] = tested on: CCRF-CEM; test: Growth inhibition of human CCRF-CEM cells at 10^-5 M incubated for 48 hrs by sulforhodamine B assay; conditions: read-out: GI
[21] = tested on: OVCAR-4; test: Growth inhibition of human OVCAR4 cells at 10^-5 M incubated for 48 hrs by sulforhodamine B assay; conditions: OVCAR-4, 48 h, read-out: GI

Compound: Oc1ccccc1C1NC(=S)Nc2c1sc1ccc(Cl)cc21 (stereo not given)
- inhibition of growth at 10 µM [1]: 2.48%
- inhibition of growth at 10 µM [2]: 7.35%
- inhibition of growth at 10 µM [3]: -5%
- inhibition of growth at 10 µM [4]: 9.77%
- inhibition of growth at 10 µM [5]: 8.44%
- inhibition of growth at 10 µM [6]: 9.4%
- inhibition of growth at 10 µM [7]: 8.75%
- inhibition of growth at 10 µM [8]: 19.4%
- inhibition of growth at 10 µM [9]: 5.31%
- inhibition of growth at 10 µM [10]: 8.3%
- inhibition of growth at 10 µM [11]: 7.8%
- inhibition of growth at 10 µM [12]: -7.9%
- inhibition of growth at 10 µM [13]: 10.2%
- inhibition of growth at 10 µM [14]: 8.93%
- inhibition of growth at 10 µM [15]: 23.4%
- inhibition of growth at 10 µM [16]: -1.54%
- inhibition of growth at 10 µM [17]: -8.34%
- inhibition of growth at 10 µM [18]: 4.13%
- inhibition of growth at 10 µM [19]: 10.7%
- inhibition of growth at 10 µM [20]: -4.86%
- inhibition of growth at 10 µM [21]: 7.52%

Compound: O=[N+]([O-])c1cccc(C2NC(=S)Nc3c2sc2ccc(Cl)cc32)c1 (stereo not given)
- inhibition of growth at 10 µM [1]: 8.69%
- inhibition of growth at 10 µM [2]: -9.95%
- inhibition of growth at 10 µM [3]: -0.23%
- inhibition of growth at 10 µM [4]: 7.47%
- inhibition of growth at 10 µM [5]: 4.17%
- inhibition of growth at 10 µM [6]: -1.46%
- inhibition of growth at 10 µM [7]: 5.75%
- inhibition of growth at 10 µM [8]: 14.5%
- inhibition of growth at 10 µM [9]: 6.48%
- inhibition of growth at 10 µM [10]: 10.6%
- inhibition of growth at 10 µM [11]: 13.7%
- inhibition of growth at 10 µM [12]: -8.3%
- inhibition of growth at 10 µM [13]: 15.4%
- inhibition of growth at 10 µM [14]: 13%
- inhibition of growth at 10 µM [15]: 19.7%
- inhibition of growth at 10 µM [16]: 4%
- inhibition of growth at 10 µM [17]: -6.1%
- inhibition of growth at 10 µM [18]: 7.97%
- inhibition of growth at 10 µM [19]: 17.3%
- inhibition of growth at 10 µM [20]: -11.8%
- inhibition of growth at 10 µM [21]: 8.46%

Compound: O=C1/C(=C\c2cccc([N+](=O)[O-])c2)Sc2ccc(Cl)cc21
- inhibition of growth at 10 µM [1]: -6.12%
- inhibition of growth at 10 µM [2]: 12.4%
- inhibition of growth at 10 µM [3]: 20.8%
- inhibition of growth at 10 µM [4]: -12.1%
- inhibition of growth at 10 µM [5]: 7.22%
- inhibition of growth at 10 µM [6]: 7.92%
- inhibition of growth at 10 µM [7]: 13.1%
- inhibition of growth at 10 µM [8]: 16.7%
- inhibition of growth at 10 µM [9]: 4.18%
- inhibition of growth at 10 µM [10]: 10.5%
- inhibition of growth at 10 µM [11]: 25.8%
- inhibition of growth at 10 µM [12]: 22.4%
- inhibition of growth at 10 µM [13]: -3.94%
- inhibition of growth at 10 µM [14]: 27%
- inhibition of growth at 10 µM [15]: 11.5%
- inhibition of growth at 10 µM [16]: -3.12%
- inhibition of growth at 10 µM [17]: 11.3%
- inhibition of growth at 10 µM [18]: -2.4%
- inhibition of growth at 10 µM [19]: 22.4%
- inhibition of growth at 10 µM [20]: -0.32%
- inhibition of growth at 10 µM [21]: 21.4%

Compound: O=C1Nc2c(sc3ccc(Cl)cc23)C(c2ccc3ccccc3c2)N1 (stereo not given)
- inhibition of growth at 10 µM [1]: 2.49%
- inhibition of growth at 10 µM [2]: 0.12%
- inhibition of growth at 10 µM [3]: -1.2%
- inhibition of growth at 10 µM [4]: 10.9%
- inhibition of growth at 10 µM [5]: 6.94%
- inhibition of growth at 10 µM [6]: -2.33%
- inhibition of growth at 10 µM [7]: -13.7%
- inhibition of growth at 10 µM [8]: 11.7%
- inhibition of growth at 10 µM [9]: 9.44%
- inhibition of growth at 10 µM [10]: 14%
- inhibition of growth at 10 µM [11]: 11.9%
- inhibition of growth at 10 µM [12]: 22.5%
- inhibition of growth at 10 µM [13]: 7.25%
- inhibition of growth at 10 µM [14]: 10.1%
- inhibition of growth at 10 µM [15]: 15.2%
- inhibition of growth at 10 µM [16]: -0.76%
- inhibition of growth at 10 µM [17]: 37.4%
- inhibition of growth at 10 µM [18]: 3.83%
- inhibition of growth at 10 µM [19]: 17.3%
- inhibition of growth at 10 µM [20]: -13.3%
- inhibition of growth at 10 µM [21]: 3.19%

Compound: O=C1/C(=C\c2cccc(Br)c2)Sc2ccc(Cl)cc21
- inhibition of growth at 10 µM [1]: -6.33%
- inhibition of growth at 10 µM [2]: -5.68%
- inhibition of growth at 10 µM [3]: -26.2%
- inhibition of growth at 10 µM [4]: -0.02%
- inhibition of growth at 10 µM [5]: 2.33%
- inhibition of growth at 10 µM [6]: -2.33%
- inhibition of growth at 10 µM [7]: -18.6%
- inhibition of growth at 10 µM [8]: 8.26%
- inhibition of growth at 10 µM [9]: 9.44%
- inhibition of growth at 10 µM [10]: -7.99%
- inhibition of growth at 10 µM [11]: 5.63%
- inhibition of growth at 10 µM [12]: -12.3%
- inhibition of growth at 10 µM [13]: -1.54%
- inhibition of growth at 10 µM [14]: 3.66%
- inhibition of growth at 10 µM [15]: 13.5%
- inhibition of growth at 10 µM [16]: -10.6%
- inhibition of growth at 10 µM [17]: -29.1%
- inhibition of growth at 10 µM [18]: -12.1%
- inhibition of growth at 10 µM [19]: -1.08%
- inhibition of growth at 10 µM [20]: -14.5%
- inhibition of growth at 10 µM [21]: -9.77%
